# Test results taken from PMC12734986 (Marine Drugs, 2025).
# Residues, ends and D or L forms follow the SMILES beside them.
# Columns and labels:
# [1] = test system: caspase-9 in NSCLC cells (A549, H460, H1299); test: Active caspase-9 (FITC-LEHD-FMK) staining; assay type: cell-based, human
# Protocol: (§1) The treated cells (1 × 10^6) were harvested, washed with PBS, and collected by centrifugation. Cells were stained with Annexin V and propidium iodide (PI) solution (556547; BD Biosciences, San Jose, CA, USA), followed by incubation at 37 °C for 15 min. […] As a negative control, z-VAD-FMK was added to each experimental condition according to the manufacturer’s instructions (ab65615; caspase 9 FITC staining kit). The cells were resuspended in 300 μL of a washing buffer and were analyzed by a flow cytometer (Accuri C6 Plus; BD Biosciences, San Jose, CA, USA).
# [2] = test system: lung cancer cells; test: Cell morphology by inverted light microscope; assay type: cell-based, human; conditions: 10 μM MP28, lung cancer cells
# Protocol: (§2) Lung cancer cells were seeded at a density of 10^3 cells in a 35 mm dish and cultured with the peptide for 7 days, until macroscopic colonies formed. Following incubation, the cells were washed and stained with 0.1% crystal violet for 30 min, and the colonies were imaged and counted. Cell morphology was observed and captured at ×10 magnification using an inverted light microscope.
# [3] = test system: H460 cells; test: Annexin V/PI staining, flow cytometry; assay type: cell-based, human
# Protocol: as §1
# [4] = test system: A549 cells; test: Annexin V/PI staining, flow cytometry; assay type: cell-based, human; conditions: A549, upper end of the increase (20 μM)
# Protocol: as §1
# [5] = test system: H1299 cells; test: Annexin V/PI staining, flow cytometry; assay type: cell-based, human
# Protocol: as §1
# [6] = test system: lung cancer cells; test: Wound-healing assay; assay type: cell-based, human; conditions: more pronounced at 24 h
# Protocol: For the wound-healing assays, cancer cells were grown to >90% confluence in 6-well plates, and scratches were created using a pipette tip. After washing, the cells were incubated in a medium with 10% FBS for 18 h and 24 h. Wound closure was monitored using an inverted phase-contrast microscope (CKX53, Olympus, Shinjuku, Tokyo, Japan), and migration was quantified by measuring the distance between wound edges at multiple sites.
# [7] = test system: horse blood erythrocytes; test: Hemolytic activity assay; assay type: cell-based; conditions: 20 μM
# Source text: In this assay, 1% Triton X-100, which causes 100% hemolysis of horse blood erythrocytes, was used as a positive control to indicate complete cell lysis. DW solution served as a negative control, indicating no hemolytic activity.
# [8] = Body weight in the A549 xenograft model; assay type: in vivo, mouse; conditions: 20 mg/kg intratumorally, six injections, during the treatment period
# Protocol: (§3) Xenograft tumors were generated by subcutaneous injection of A549 lung cancer cells (1 × 10^6 cells/100 µL) into the right flanks of BALB/c female nude mice (5 weeks of age, n = 20). […] The control mice were injected with equal volumes of DW. The tumor size was measured using a caliper (calculated volume = shortest diameter^2 × […]) at 2- or 3-day intervals. The methods were performed in accordance with the relevant guidelines and regulations and were approved by the Animal Care and Use Committee (IACUC) of the National Marine Biodiversity Institute of Korea (Approval No.: MAB-004; approval date: 2 December 2024).
# [9] = test system: NSCLC cells; test: Transwell invasion assay (Matrigel-coated); assay type: cell-based, human; conditions: 10 μM
# Protocol: (§4) Cell migration and invasion were assessed using Transwell chambers with 8 μm pores (BD Biosciences). Cancer cells (2 × 10^4) were seeded in serum-free medium in the upper chamber, while medium containing 10% FBS was placed in the lower chamber. Matrigel-coated upper chambers were used for invasion assays. Following incubation, the migratory and invasive cells were fixed, stained with crystal violet, and imaged under a light microscope.
# [10] = test system: A549 xenograft in BALB/c nude mice; test: A549 xenograft tumor growth; assay type: in vivo, mouse; conditions: 20 mg/kg intratumorally, every other day, six injections, subcutaneous A549
# Protocol: as §3
# [11] = test system: NSCLC cells; test: Transwell migration assay; assay type: cell-based, human; conditions: Transwell 8 μm pores, 10 μM
# Protocol: as §4
# [12] = test system: NSCLC cells (A549, H460, H1299); test: Colony formation assay; assay type: cell-based, human; conditions: 10 and 20 μM, 7 days, crystal violet, all NSCLCs
# Protocol: as §2
# [13] = test system: cellular vimentin in lung cancer cells; test: Vimentin immunofluorescence staining; assay type: cell-based, human; conditions: 10 μM MP28, immunofluorescence
compound,measurement,setting,value
CC(C)C[C@H](NC(=O)[C@H](Cc1c[nH]c2ccccc12)NC(=O)[C@@H]1CCCN1C(=O)[C@H](CCCCN)NC(=O)[C@H](CCCCN)NC(=O)[C@H](CS)NC(=O)[C@@H](N)CS)C(=O)N[C@@H](CCCNC(=N)N)C(=O)N[C@@H](CS)C(=O)N[C@@H](Cc1c[nH]c2ccccc12)C(=O)N[C@@H](CCCNC(=N)N)C(=O)N[C@H](C(=O)N[C@@H](CS)C(=O)N[C@@H](CC(C)C)C(=O)N1CCC[C@H]1C(=O)N[C@@H](CO)C(=O)N[C@@H](CCCNC(=N)N)C(=O)N[C@@H](Cc1c[nH]c2ccccc12)C(=O)N[C@@H](CCC(N)=O)C(=O)N[C@@H](CCCNC(=N)N)C(=O)N[C@@H](CCC(=O)O)C(=O)N[C@@H](CCCNC(=N)N)C(=O)N[C@@H](Cc1ccccc1)C(=O)NCC(=O)N[C@@H](CCCNC(=N)N)C(=O)N[C@@H](CCCCN)C(=O)N[C@@H](CS)C(N)=O)[C@@H](C)O [MP28] (H-CCKKPWLRCWRTCLPSRWQRERFGRKC-NH2; N-terminus assumed),caspase-9 activation,"[1]; 10 μM MP28 for 3 h, NSCLCs, FITC fluorescence microscopy and flow cytometry",triggered caspase-9 activation
same,induction of cleaved caspase-9,[1]; A549 and H460 cells (wild-type p53),more rapid and robust induction of cleaved caspase-9
same,induction of cleaved caspase-9,[1]; H1299 cells (p53-deficient),weaker activation signal
same,morphological changes,[2],morphological changes from a spindle to a cobblestone-like shape
same,percentage of apoptotic cells,"[3]; H460, lower end of the increase (10 μM as read from the text)",7.5%
same,percentage of apoptotic cells,"[3]; H460, upper end of the increase (20 μM)",19.2%
same,percentage of apoptotic cells,[4],15.6%
same,percentage of apoptotic cells,"[5]; H1299, lower end of the increase (10 μM as read from the text)",3.1%
same,percentage of apoptotic cells,"[5]; H1299, upper end of the increase (20 μM)",17.8%
same,residual wound area versus control,[6],larger residual wound areas
same,hemolysis (in words),[7],no or minimal hemolysis
same,body weight versus control,[8],No significant loss of body weight
same,invasive capacity,[9],significantly reduced
same,tumor growth versus control,[10],tumor growth was significantly slower
same,migratory capacity,[11],significantly reduced
same,colony formation (long term cell proliferation),[12],markedly reduced cell growth
same,cellular vimentin level,[13],decreased the levels of cellular vimentin
